Measurements: PubChem BioAssay (NCI)
Where “and” joins values, the source holds several entries; their conditions need not be identical. Identical values can stand only once.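 Briefly, cells in 96-well plates were exposed to five compound concentrations for 48 h, and endpoints were estimated by linear interpolation. Abbreviation: GI50, concentration required for 50% inhibition of growth. TGI: concentration producing complete growth inhibition.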

Experiments:
Assay in all cases: growth of human tumour cells (NCI), 48 h
DMS 114 small cell lung = tested on: DMS 114 small cell lung
HL-60(TB) leukemia = tested on: HL-60(TB) leukemia
LOX IMVI melanoma = tested on: LOX IMVI melanoma
OVCAR-5 ovarian = tested on: OVCAR-5 ovarian
MALME-3M melanoma = tested on: MALME-3M melanoma
MCF7 breast = tested on: MCF7 breast
HT29 colon = tested on: HT29 colon
ACHN renal = tested on: ACHN renal
EKVX NSCLC = tested on: EKVX NSCLC
HCT-116 colon = tested on: HCT-116 colon
SR leukemia = tested on: SR leukemia
U251 CNS = tested on: U251 CNS
M14 melanoma = tested on: M14 melanoma
A549 NSCLC = tested on: A549 NSCLC
NCI/ADR-RES ovarian = tested on: NCI/ADR-RES ovarian
CCRF-CEM leukemia = tested on: CCRF-CEM leukemia
MDA-N = tested on: MDA-N
SF-268 CNS = tested on: SF-268 CNS
SK-OV-3 ovarian = tested on: SK-OV-3 ovarian
MDA-MB-231 breast = tested on: MDA-MB-231 breast
SK-MEL-5 melanoma = tested on: SK-MEL-5 melanoma
HOP-92 NSCLC = tested on: HOP-92 NSCLC
MOLT-4 leukemia = tested on: MOLT-4 leukemia
COLO 205 colon = tested on: COLO 205 colon
UACC-62 melanoma = tested on: UACC-62 melanoma
NCI-H23 lung = tested on: NCI-H23 lung
RXF 393 renal = tested on: RXF 393 renal
IGROV1 ovarian = tested on: IGROV1 ovarian
SK-MEL-28 melanoma = tested on: SK-MEL-28 melanoma
NCI-H522 lung = tested on: NCI-H522 lung
UACC-257 melanoma = tested on: UACC-257 melanoma
786-0 renal = tested on: 786-0 renal
SN12C renal = tested on: SN12C renal
HCT-15 colon = tested on: HCT-15 colon
DU-145 prostate = tested on: DU-145 prostate
RPMI-8226 leukemia = tested on: RPMI-8226 leukemia
SF-539 CNS = tested on: SF-539 CNS
CAKI-1 renal = tested on: CAKI-1 renal
SF-295 CNS = tested on: SF-295 CNS
NCI-H460 lung = tested on: NCI-H460 lung
OVCAR-8 ovarian = tested on: OVCAR-8 ovarian
K-562 leukemia = tested on: K-562 leukemia
TK-10 renal = tested on: TK-10 renal
OVCAR-4 ovarian = tested on: OVCAR-4 ovarian
KM12 colon = tested on: KM12 colon
UO-31 renal = tested on: UO-31 renal
SNB-75 CNS = tested on: SNB-75 CNS
BT-549 breast = tested on: BT-549 breast
MDA-MB-435 = tested on: MDA-MB-435
SK-MEL-2 melanoma = tested on: SK-MEL-2 melanoma
HCC-2998 colon = tested on: HCC-2998 colon
T-47D breast = tested on: T-47D breast
A498 renal = tested on: A498 renal
PC-3 prostate = tested on: PC-3 prostate
OVCAR-3 ovarian = tested on: OVCAR-3 ovarian
HOP-62 NSCLC = tested on: HOP-62 NSCLC
NCI-H226 lung = tested on: NCI-H226 lung
SW-620 colon = tested on: SW-620 colon
SNB-19 CNS = tested on: SNB-19 CNS
HS 578T breast = tested on: HS 578T breast
HOP-18 NSCLC = tested on: HOP-18 NSCLC
XF 498 CNS = tested on: XF 498 CNS
DLD-1 colon = tested on: DLD-1 colon
LXFL 529 NSCLC = tested on: LXFL 529 NSCLC
KM20L2 colon = tested on: KM20L2 colon
SNB-78 CNS = tested on: SNB-78 CNS

CC(C)SC1CC2C(CC1(C)O)C2(C)C (centres undefined)
GI50 (DMS 114 small cell lung): 89.7 µM and 18.7 µM | TGI (DMS 114 small cell lung): > 100 µM | GI50 (HL-60(TB) leukemia): 53.4 µM and 9.68 µM | TGI (HL-60(TB) leukemia): > 100 µM

COC(=O)C1=C(C(=O)OC)N(c2ccc(OC)cc2[N+](=O)[O-])C(c2ccc(C)cc2)=CC1c1ccc(OC)cc1OC (centres undefined)
TGI (LOX IMVI melanoma): 6.75 µM | TGI (OVCAR-5 ovarian): > 100 µM | TGI (MALME-3M melanoma): > 77.4 µM | TGI (MCF7 breast): > 100 µM | TGI (HT29 colon): > 100 µM | TGI (ACHN renal): > 100 µM | TGI (EKVX NSCLC): > 100 µM | TGI (HCT-116 colon): > 100 µM | TGI (SR leukemia): 27.7 µM | TGI (U251 CNS): 34.8 µM | TGI (M14 melanoma): > 100 µM | TGI (A549 NSCLC): 65.3 µM | TGI (NCI/ADR-RES ovarian): > 77.8 µM | TGI (CCRF-CEM leukemia): > 32.4 µM | TGI (MDA-N): > 100 µM | TGI (SF-268 CNS): > 100 µM | TGI (SK-OV-3 ovarian): 73.3 µM | TGI (MDA-MB-231 breast): > 74 µM | TGI (SK-MEL-5 melanoma): > 100 µM | TGI (HOP-92 NSCLC): > 100 µM | TGI (MOLT-4 leukemia): 55.2 µM | TGI (COLO 205 colon): 20.8 µM | TGI (UACC-62 melanoma): > 100 µM | TGI (NCI-H23 lung): > 100 µM | TGI (RXF 393 renal): 50 µM | TGI (IGROV1 ovarian): 56.8 µM | TGI (SK-MEL-28 melanoma): > 100 µM | TGI (NCI-H522 lung): 57.5 µM | TGI (UACC-257 melanoma): > 100 µM | TGI (786-0 renal): > 94 µM | TGI (SN12C renal): 26.5 µM | TGI (HCT-15 colon): 57.9 µM | TGI (DU-145 prostate): > 100 µM | TGI (RPMI-8226 leukemia): 6.07 µM | TGI (SF-539 CNS): 20.8 µM | TGI (CAKI-1 renal): > 92.4 µM | TGI (SF-295 CNS): > 100 µM | TGI (NCI-H460 lung): 98.7 µM | TGI (OVCAR-8 ovarian): 47.9 µM | TGI (K-562 leukemia): > 54.4 µM | TGI (TK-10 renal): > 100 µM | TGI (OVCAR-4 ovarian): > 100 µM | TGI (KM12 colon): 25.7 µM | TGI (UO-31 renal): > 31.6 µM | TGI (SNB-75 CNS): > 87.7 µM | TGI (BT-549 breast): > 100 µM | TGI (MDA-MB-435): > 100 µM | TGI (SK-MEL-2 melanoma): > 80.4 µM | TGI (HCC-2998 colon): 30.6 µM | TGI (T-47D breast): > 93.3 µM | TGI (A498 renal): 46.3 µM | TGI (PC-3 prostate): > 100 µM | TGI (OVCAR-3 ovarian): > 95 µM | TGI (HOP-62 NSCLC): > 72.7 µM | TGI (NCI-H226 lung): 49.9 µM | TGI (HL-60(TB) leukemia): > 44.3 µM | TGI (SW-620 colon): 19.2 µM | TGI (SNB-19 CNS): > 95.6 µM | TGI (HS 578T breast): 79.5 µM

CCC(=O)CC(=O)CCC(=O)Nc1cc(C)ccc1C
TGI (LOX IMVI melanoma): > 100 µM | TGI (MALME-3M melanoma): > 100 µM | TGI (HT29 colon): > 100 µM | TGI (ACHN renal): > 100 µM | TGI (EKVX NSCLC): > 100 µM | TGI (HCT-116 colon): > 100 µM | TGI (SR leukemia): > 100 µM | TGI (U251 CNS): > 100 µM | TGI (M14 melanoma): > 100 µM | TGI (A549 NSCLC): > 100 µM | TGI (CCRF-CEM leukemia): > 100 µM | TGI (SF-268 CNS): > 100 µM | TGI (SK-OV-3 ovarian): > 100 µM | TGI (HOP-18 NSCLC): > 100 µM | TGI (SK-MEL-5 melanoma): > 100 µM | TGI (HOP-92 NSCLC): > 100 µM | TGI (MOLT-4 leukemia): > 100 µM | TGI (UACC-62 melanoma): > 100 µM | TGI (NCI-H23 lung): > 100 µM | TGI (RXF 393 renal): > 100 µM | TGI (IGROV1 ovarian): > 100 µM | TGI (SK-MEL-28 melanoma): > 100 µM | TGI (XF 498 CNS): > 100 µM | TGI (NCI-H522 lung): > 100 µM | TGI (786-0 renal): > 100 µM | TGI (SN12C renal): > 100 µM | TGI (HCT-15 colon): > 100 µM | TGI (RPMI-8226 leukemia): > 100 µM | TGI (SF-539 CNS): > 100 µM | TGI (SF-295 CNS): > 100 µM | TGI (NCI-H460 lung): > 100 µM | TGI (OVCAR-8 ovarian): > 100 µM | TGI (K-562 leukemia): > 100 µM | TGI (TK-10 renal): > 100 µM | TGI (KM12 colon): > 100 µM | TGI (UO-31 renal): > 100 µM | TGI (DLD-1 colon): > 100 µM | TGI (SNB-75 CNS): > 100 µM | TGI (LXFL 529 NSCLC): > 100 µM | TGI (KM20L2 colon): > 100 µM | TGI (SNB-78 CNS): > 100 µM | TGI (SK-MEL-2 melanoma): > 100 µM | TGI (A498 renal): > 100 µM | TGI (OVCAR-3 ovarian): > 100 µM | TGI (HL-60(TB) leukemia): > 100 µM | TGI (SW-620 colon): > 100 µM | TGI (SNB-19 CNS): > 100 µM

Brc1ccc2[nH]cc(-c3csc(-c4c[nH]c5ccccc45)n3)c2c1
TGI (LOX IMVI melanoma): 4.5 µM | TGI (OVCAR-5 ovarian): 4.86 µM | TGI (MALME-3M melanoma): 8.21 µM | TGI (MCF7 breast): > 100 µM | TGI (HT29 colon): 3.29 µM | TGI (ACHN renal): 13.2 µM | TGI (EKVX NSCLC): 12 µM | TGI (HCT-116 colon): 6.66 µM | TGI (SR leukemia): 10.4 µM | TGI (U251 CNS): 8.64 µM | TGI (M14 melanoma): 5.14 µM | TGI (A549 NSCLC): 20.2 µM | TGI (NCI/ADR-RES ovarian): 10.5 µM | TGI (CCRF-CEM leukemia): 5.89 µM | TGI (MDA-N): 7.65 µM | TGI (SF-268 CNS): 8.91 µM | TGI (SK-OV-3 ovarian): 20.7 µM | TGI (MDA-MB-231 breast): 6.37 µM | TGI (SK-MEL-5 melanoma): 5.64 µM | TGI (HOP-92 NSCLC): 7.68 µM | TGI (MOLT-4 leukemia): 6.18 µM | TGI (COLO 205 colon): 7.72 µM | TGI (UACC-62 melanoma): > 22.5 µM | TGI (NCI-H23 lung): 8.21 µM | TGI (RXF 393 renal): 11.2 µM | TGI (IGROV1 ovarian): 11.6 µM | TGI (SK-MEL-28 melanoma): 15.3 µM | TGI (NCI-H522 lung): 3.53 µM | TGI (UACC-257 melanoma): 17.8 µM | TGI (786-0 renal): 5.27 µM | TGI (SN12C renal): 14.2 µM | TGI (HCT-15 colon): 6.54 µM | TGI (DU-145 prostate): 9.15 µM | TGI (RPMI-8226 leukemia): 12.1 µM | TGI (SF-539 CNS): 16.7 µM | TGI (CAKI-1 renal): 9.2 µM | TGI (SF-295 CNS): 6.32 µM | TGI (NCI-H460 lung): 12.6 µM | TGI (OVCAR-8 ovarian): 21.2 µM | TGI (K-562 leukemia): > 20.8 µM | TGI (TK-10 renal): 12 µM | TGI (OVCAR-4 ovarian): 28.1 µM | TGI (KM12 colon): 5.69 µM | TGI (UO-31 renal): 11.3 µM | TGI (SNB-75 CNS): 23.9 µM | TGI (BT-549 breast): 22.7 µM | TGI (MDA-MB-435): 15.7 µM | TGI (SK-MEL-2 melanoma): 9.36 µM | TGI (HCC-2998 colon): 3.96 µM | TGI (T-47D breast): 26.9 µM | TGI (A498 renal): 13.8 µM | TGI (PC-3 prostate): 10.2 µM | TGI (OVCAR-3 ovarian): 11.8 µM | TGI (HOP-62 NSCLC): 16.4 µM | TGI (NCI-H226 lung): 4.56 µM | TGI (HL-60(TB) leukemia): 14.2 µM | TGI (SW-620 colon): 8.23 µM | TGI (SNB-19 CNS): 9.6 µM | TGI (HS 578T breast): > 47.9 µM
